Laboratory results from patent publication US8962631B2 (Vertex Pharmaceuticals Incorporated, priority 2010, dated 2015).

Biological target: T1, full-length ATR (Homo sapiens, UniProt Q13535)
T1 construct: Assays were carried out at 25° C. in the presence of 5 nM full-length ATR
Experiment: ATR Inhibition Assay (radioactive-phosphate incorporation)
Type: biochemical
Conditions: Ki(app); 10 μM ATP, 800 μM target peptide, 5 nM full-length ATR, 25° C.
Method: Compounds were screened for their ability to inhibit ATR kinase using a radioactive-phosphate incorporation assay. Assays were carried out in a mixture of 50 mM Tris/HCl (pH 7.5), 10 mM MgCl2 and 1 mM DTT. Final substrate concentrations were 10 μM [γ-33P]ATP (3 mCi 33P ATP/mmol ATP, Perkin Elmer) and 800 μM target peptide ([…] (SEQ. ID NO: 1)).
Assays were carried out at 25° C. in the presence of 5 nM full-length ATR. An assay stock buffer solution was prepared containing all of the reagents listed above, with the exception of ATP and the test compound of interest. 13.5 μL of the stock solution was placed in a 96 well plate followed by addition of 2 μL of DMSO stock containing serial dilutions of the test compound (typically starting from a final concentration of 15 μM with 3-fold serial dilutions) in duplicate (final DMSO concentration 7%). The plate was pre-incubated for 10 minutes at 25° C. and the reaction initiated by addition of 15 μL [γ-33P]ATP (final concentration 10 μM).
The reaction was stopped after 24 hours by the addition of 30 μL 0.1M phosphoric acid containing 2 mM ATP. A multiscreen phosphocellulose filter 96-well plate (Millipore, Cat no. MAPHN0B50) was pretreated with 100 μL 0.2M phosphoric acid prior to the addition of 45 μL of the stopped assay mixture. The plate was washed with […] 0.2M phosphoric acid. After drying, 100 μL Optiphase ‘SuperMix’ liquid scintillation cocktail (Perkin Elmer) was added to the well prior to scintillation counting (1450 Microbeta Liquid Scintillation Counter, Wallac).
After removing mean background values for all of the data points, Ki(app) data were calculated from non-linear regression analysis of the initial rate data using the Prism software package (GraphPad Prism version 3.0cx for Macintosh, GraphPad Software, San Diego Calif., USA).

T1 sequence (Q13535 whole entry): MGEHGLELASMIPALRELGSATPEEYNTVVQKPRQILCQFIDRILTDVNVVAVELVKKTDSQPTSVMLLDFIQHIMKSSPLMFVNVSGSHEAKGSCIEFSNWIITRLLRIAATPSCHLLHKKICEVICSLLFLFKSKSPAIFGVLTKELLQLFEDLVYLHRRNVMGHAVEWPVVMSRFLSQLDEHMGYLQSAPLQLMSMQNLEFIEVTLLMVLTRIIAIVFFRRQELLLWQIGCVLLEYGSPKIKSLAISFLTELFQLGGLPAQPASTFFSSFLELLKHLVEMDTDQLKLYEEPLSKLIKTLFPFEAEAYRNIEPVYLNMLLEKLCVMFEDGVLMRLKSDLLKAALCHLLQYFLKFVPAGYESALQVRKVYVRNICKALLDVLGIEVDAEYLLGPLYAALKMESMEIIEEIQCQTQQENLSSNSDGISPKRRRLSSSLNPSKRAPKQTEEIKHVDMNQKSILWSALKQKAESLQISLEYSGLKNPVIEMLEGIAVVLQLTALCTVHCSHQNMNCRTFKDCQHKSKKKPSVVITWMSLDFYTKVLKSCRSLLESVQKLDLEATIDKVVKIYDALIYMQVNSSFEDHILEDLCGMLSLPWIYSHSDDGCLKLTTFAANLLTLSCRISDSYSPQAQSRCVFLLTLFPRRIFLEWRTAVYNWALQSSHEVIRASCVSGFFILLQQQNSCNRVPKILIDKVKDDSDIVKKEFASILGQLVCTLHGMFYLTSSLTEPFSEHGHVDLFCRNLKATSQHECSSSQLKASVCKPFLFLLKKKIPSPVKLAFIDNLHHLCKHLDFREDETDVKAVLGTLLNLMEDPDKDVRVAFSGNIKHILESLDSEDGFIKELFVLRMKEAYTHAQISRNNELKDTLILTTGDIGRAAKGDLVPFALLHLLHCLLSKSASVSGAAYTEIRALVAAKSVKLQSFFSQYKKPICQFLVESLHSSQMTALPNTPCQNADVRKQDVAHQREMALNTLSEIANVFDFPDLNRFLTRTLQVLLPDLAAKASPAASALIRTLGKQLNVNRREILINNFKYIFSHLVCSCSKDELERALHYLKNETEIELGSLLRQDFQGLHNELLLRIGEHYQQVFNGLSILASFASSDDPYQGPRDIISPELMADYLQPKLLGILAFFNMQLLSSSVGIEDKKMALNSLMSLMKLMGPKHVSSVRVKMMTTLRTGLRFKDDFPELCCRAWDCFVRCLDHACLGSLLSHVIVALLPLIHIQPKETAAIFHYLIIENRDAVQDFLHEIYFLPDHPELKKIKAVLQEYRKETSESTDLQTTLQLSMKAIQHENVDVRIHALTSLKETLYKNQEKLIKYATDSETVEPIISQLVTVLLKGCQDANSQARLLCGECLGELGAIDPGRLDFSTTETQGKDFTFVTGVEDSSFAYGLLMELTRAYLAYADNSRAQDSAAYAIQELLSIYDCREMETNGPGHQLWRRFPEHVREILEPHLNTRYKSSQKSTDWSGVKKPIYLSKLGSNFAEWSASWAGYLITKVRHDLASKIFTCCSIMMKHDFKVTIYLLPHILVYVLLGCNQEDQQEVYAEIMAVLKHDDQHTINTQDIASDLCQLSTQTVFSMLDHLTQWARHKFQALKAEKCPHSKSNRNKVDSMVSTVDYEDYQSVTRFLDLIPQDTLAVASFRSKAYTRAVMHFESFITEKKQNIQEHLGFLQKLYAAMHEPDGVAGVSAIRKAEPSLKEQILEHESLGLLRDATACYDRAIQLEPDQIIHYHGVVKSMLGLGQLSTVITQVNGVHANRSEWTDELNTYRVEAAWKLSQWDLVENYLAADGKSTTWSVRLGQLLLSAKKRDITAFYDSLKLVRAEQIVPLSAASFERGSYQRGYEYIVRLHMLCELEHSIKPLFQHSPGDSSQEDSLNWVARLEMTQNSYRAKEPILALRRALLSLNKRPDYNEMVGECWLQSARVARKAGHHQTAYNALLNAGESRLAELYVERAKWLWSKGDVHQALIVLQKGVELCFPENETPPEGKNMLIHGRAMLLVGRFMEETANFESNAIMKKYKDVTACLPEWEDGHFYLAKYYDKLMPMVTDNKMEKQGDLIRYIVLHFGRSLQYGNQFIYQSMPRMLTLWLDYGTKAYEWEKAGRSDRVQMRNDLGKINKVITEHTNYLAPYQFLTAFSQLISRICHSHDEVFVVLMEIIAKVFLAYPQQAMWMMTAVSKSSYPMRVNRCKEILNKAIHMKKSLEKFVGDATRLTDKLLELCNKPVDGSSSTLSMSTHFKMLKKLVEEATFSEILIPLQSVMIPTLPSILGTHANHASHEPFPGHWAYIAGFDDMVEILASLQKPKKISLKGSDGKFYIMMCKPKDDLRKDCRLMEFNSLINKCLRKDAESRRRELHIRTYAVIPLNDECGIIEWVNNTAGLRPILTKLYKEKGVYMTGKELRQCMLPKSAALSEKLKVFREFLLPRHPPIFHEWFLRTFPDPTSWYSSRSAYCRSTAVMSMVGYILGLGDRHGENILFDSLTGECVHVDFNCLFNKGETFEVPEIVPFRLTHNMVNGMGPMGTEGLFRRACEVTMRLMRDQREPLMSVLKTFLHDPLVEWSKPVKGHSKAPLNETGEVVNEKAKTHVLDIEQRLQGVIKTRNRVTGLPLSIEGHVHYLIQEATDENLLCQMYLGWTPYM

SMILES | Ki [µM]
Nc1ncc(Nc2cccnc2)nc1C(=O)Nc1ccccc1 [II-5, 3-Amino-N-phenyl-6-(3-pyridylamino)pyrazine-2-carboxamide] | ≤ 0.5
Cc1ccc2nc(-c3nc(OC4CCCN(C)C4)cnc3N)[nH]c2c1 (centres unmarked) [II-33, 3-(6-Methyl-1H-benzimidazol-2-yl)-5-[(1-methyl-3-piperidyl)oxy]pyrazin-2-amine] | 1 to 8
COc1ccccc1NC(=O)c1nc(Oc2ccccc2)cnc1N [II-16, 3-Amino-N-(2-methoxyphenyl)-6-phenoxy-pyrazine-2-carboxamide] | ≤ 0.5
Cc1ccc2nc(-c3nc(Oc4ccccc4)cnc3N)[nH]c2c1 [II-30, 3-(6-Methyl-1H-benzimidazol-2-yl)-5-phenoxy-pyrazin-2-amine] | 1 to 8
COc1cccc(Oc2cnc(N)c(-c3nc4ccccc4[nH]3)n2)c1 [II-15, 3-(1H-Benzimidazol-2-yl)-5-(3-methoxyphenoxy)pyrazin-2-amine] | 0.5 to 1
Cc1ccc2nc(-c3nc(C(=O)NCCc4ccccc4)cnc3N)[nH]c2c1 [II-69, 5-Amino-6-(6-methyl-1H-benzimidazol-2-yl)-N-phenethyl-pyrazine-2-carboxamide] | 0.5 to 1
Nc1ncc(O[C@@H]2CC[C@H](O)C2)nc1-c1nc2ccccc2[nH]1 (relative stereo) [II-35, cis-3-((5-Amino-6-(1H-benzo[d]imidazol-2-yl)pyrazin-2-yl)oxy)cyclopentanol] | 1 to 8
Nc1ncc(Oc2cccc(Cl)c2)nc1-c1nc2ccccc2[nH]1 [II-8, 3-(1H-Benzimidazol-2-yl)-5-(3-chlorophenoxy)pyrazin-2-amine] | 0.5 to 1
Nc1ncc(Sc2cccc(Cl)c2)nc1-c1nc2ccccc2[nH]1 [II-39, 3-(1H-Benzimidazol-2-yl)-5-(3-chlorophenyl)sulfanyl-pyrazin-2-amine] | 1 to 8
Nc1ncc(Oc2cccnc2)nc1-c1nc2ccccc2[nH]1 [II-12, 3-(1H-Benzimidazol-2-yl)-5-(3-pyridyloxy)pyrazin-2-amine] | 1 to 8
Nc1ncc(Oc2ccccc2)nc1-c1nc2ccccc2[nH]1 [II-7, 3-(1H-Benzimidazol-2-yl)-5-phenoxy-pyrazin-2-amine] | 0.5 to 1
Cc1ccc2nc(-c3nc(C(=O)NC4CCC4)cnc3N)[nH]c2c1 [II-74, 5-Amino-N-cyclobutyl-6-(6-methyl-1H-benzimidazol-2-yl)pyrazine-2-carboxamide] | 1 to 8
Nc1ncc(C#CCCO)nc1-c1nnc(-c2ccccc2)o1 [II-89, 4-[5-amino-6-(5-phenyl-1,3,4-oxadiazol-2-yl)pyrazin-2-yl]but-3-yn-1-ol] | 1 to 8
Cc1ccc2nc(-c3nc(C(=O)NCc4ccccc4)cnc3N)[nH]c2c1 [II-43, 5-Amino-N-benzyl-6-(6-methyl-1H-benzimidazol-2-yl)pyrazine-2-carboxamide] | ≤ 0.5
Nc1ncc(Sc2ccccc2)nc1C(=O)Nc1ccccc1 [II-37, 3-Amino-N-phenyl-6-phenylsulfanyl-pyrazine-2-carboxamide] | 1 to 8
Nc1ncc(C#CCO)nc1-c1nnc(-c2ccccc2)o1 [II-90, 3-[5-amino-6-(5-phenyl-1,3,4-oxadiazol-2-yl)pyrazin-2-yl]prop-2-yn-1-ol] | 1 to 8
COc1ccccc1NC(=O)c1nc(Nc2ccccc2)cnc1N [II-3, 3-Amino-6-anilino-N-(2-methoxyphenyl)pyrazine-2-carboxamide] | ≤ 0.5
Nc1ncc(O[C@@H]2CC[C@@H](O)C2)nc1-c1nc2ccccc2[nH]1 (relative stereo) [II-36, trans-3-((5-Amino-6-(1H-benzo[d]imidazol-2-yl)pyrazin-2-yl)oxy)cyclopentanol] | 0.5 to 1

Other lines, results leading:

Ki [µM] | SMILES
1 to 8 | Cc1ccc2nc(-c3nc(C(=O)NCC(N)=O)cnc3N)[nH]c2c1 [II-50, 5-Amino-N-(2-amino-2-oxo-ethyl)-6-(6-methyl-1H-benzimidazol-2-yl)pyrazine-2-carboxamide]
0.5 to 1 | C/C=C/c1cnc(N)c(-c2nc3ccc(C)cc3[nH]2)n1 [II-78, 3-(6-Methyl-1H-benzimidazol-2-yl)-5-[(E)-prop-1-enyl]pyrazin-2-amine]
1 to 8 | Cc1ccc2nc(-c3nc(C(=O)NCC(=O)N(C)C)cnc3N)[nH]c2c1 [II-61, 5-Amino-N-[2-(dimethylamino)-2-oxo-ethyl]-6-(6-methyl-1H-benzimidazol-2-yl)pyrazine-2-carboxamide]
≤ 0.5 | Cc1ccc2nc(-c3nc(C(=O)NCC#N)cnc3N)[nH]c2c1 [II-48, 5-Amino-N-(cyanomethyl)-6-(6-methyl-1H-benzimidazol-2-yl)pyrazine-2-carboxamide]
≤ 0.5 | Cc1ccc2nc(-c3nc(C(=O)NCC4CC4)cnc3N)[nH]c2c1 [II-56, 5-Amino-N-(cyclopropylmethyl)-6-(6-methyl-1H-benzimidazol-2-yl)pyrazine-2-carboxamide]
0.5 to 1 | Cc1ccc2nc(-c3nc(C#CCO)cnc3N)[nH]c2c1 [II-82, 3-[5-Amino-6-(6-methyl-1H-benzimidazol-2-yl)pyrazin-2-yl]prop-2-yn-1-ol]
1 to 8 | Cc1ccc2nc(-c3nc(C(=O)N(C)CC#N)cnc3N)[nH]c2c1 [II-76, 5-Amino-N-(cyanomethyl)-N-methyl-6-(6-methyl-1H-benzimidazol-2-yl)pyrazine-2-carboxamide]
≤ 0.5 | C#CCNC(=O)c1cnc(N)c(-c2nc3ccc(C)cc3[nH]2)n1 [II-54, 5-Amino-6-(6-methyl-1H-benzimidazol-2-yl)-N-prop-2-ynyl-pyrazine-2-carboxamide]
0.5 to 1 | Cc1ccc2nc(-c3nc(NC(=O)CC#N)cnc3N)[nH]c2c1 [II-92, N-(5-Amino-6-(6-methyl-1H-benzo[d]imidazol-2-yl)pyrazin-2-yl)-2-cyanoethanamide]
1 to 8 | Cc1ccc2nc(-c3nc(C(=O)NCC(C)O)cnc3N)[nH]c2c1 (centres unmarked) [II-67, 5-Amino-N-(2-hydroxypropyl)-6-(6-methyl-1H-benzimidazol-2-yl)pyrazine-2-carboxamide]
0.5 to 1 | COCC#Cc1cnc(N)c(-c2nc3ccc(C)cc3[nH]2)n1 [II-83, 5-(3-Methoxyprop-1-ynyl)-3-(6-methyl-1H-benzimidazol-2-yl)pyrazin-2-amine]

Same assay, conditions: at 15 uM compound; read-out: percent inhibition against ATR

SMILES | inhibition at 15 µM [%]
COC(=O)c1ccc(Oc2cnc(N)c(-c3nc4ccc(C)cc4[nH]3)n2)cc1 [II-25, Methyl 4-[5-amino-6-(6-methyl-1H-benzimidazol-2-yl)pyrazin-2-yl]oxybenzoate] | 10
Cc1cccc(Oc2cnc(N)c(-c3nc4ccccc4[nH]3)n2)c1 [II-11, 3-(1H-Benzimidazol-2-yl)-5-(3-methylphenoxy)pyrazin-2-amine] | 15 to 24
COc1ccc(Oc2cnc(N)c(-c3nc4ccc(C)cc4[nH]3)n2)cc1 [II-19, 5-(4-Methoxyphenoxy)-3-(6-methyl-1H-benzimidazol-2-yl)pyrazin-2-amine] | 25 to 45
